These results are taken from PubChem BioAssay (NCI).

Test in all cases: inhibition of tumour cell growth, NCI panel, 48 h
The test system of assay [1] is EKVX NSCLC.
Assay [2] has as its system HT29 colon.
Assay [3] has as its system SF-539 CNS.
In assay [4] the test system is M14 melanoma.
In assay [5] the test system is SF-268 CNS.
Assay [6] has as its system HS 578T breast.
Assay [7] concerns CAKI-1 renal.
The subject of assay [8] is NCI-H226 lung.
In assay [9] the test system is OVCAR-4 ovarian.
Assay [10] relates to HCT-15 colon.
In assay [11] the test system is HCC-2998 colon.
Assay [12] has as its system MALME-3M melanoma.
Assay [13] concerns NCI-H23 lung.
Assay [14] has as its system SK-OV-3 ovarian.
For assay [15], the system named is HOP-92 NSCLC.
Assay [16] relates to OVCAR-3 ovarian.
Assay [17] deals with SW-620 colon.
In assay [18] the test system is UACC-62 melanoma.
For assay [19], the system named is NCI/ADR-RES ovarian.
Assay [20] concerns SK-MEL-28 melanoma.

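Compound exposure: 48 hours, 5 concentrations, 96-well plates. The concentration for full growth arrest is given as TGI.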

With `c1ccc(C2(c3ccccc3)S/C(=C3/SC(c4ccccc4)(c4ccccc4)c4ccccc43)c3ccccc32)cc1`, the TGI in assay [1], in assay [2], in assay [3], in assay [4], in assay [5] and in assay [6] was over 100 µM throughout. Besides, the TGI in [7], in assay [8], in assay [9], in [10], in [11] and in [12] was over 100 µM each time. In addition, the TGI in [13], in assay [14], in [15], in assay [16], in [17] and in [18] was over 100 µM in each case. In addition, the TGI in assay [19] and in assay [20] was over 100 µM each time.

On to `O=C1c2ccccc2-c2nc(-c3cccs3)cc3c2c1nc1ccccc13`, for which the TGI in [1] is over 100 µM; in assay [2] it was 62.6 µM; in [3], over 100 µM; in assay [4], 18.3 µM; in assay [5], 56.8 µM; in assay [6], 90 µM. In addition, the TGI is over 100 µM in assay [7]; over 100 µM in assay [8]; over 100 µM in assay [9]; 57.1 µM in assay [10]; 68 µM in [11]; 23.1 µM in assay [12]. Further, the TGI is 38.8 µM in [13]; over 100 µM in [14]; over 100 µM in assay [15]; 9.39 µM in assay [16]; 31 µM in [17]; 19.3 µM in [18]. Also, the TGI in [19] is over 100 µM; in assay [20], 36.8 µM.

On to `CCOc1cc(/C=N\O)cc(/C=N/O)c1O`, for which the TGI in [1] was over 100 µM; in assay [2], over 100 µM; in [3] it was 61.1 µM; in assay [4], over 100 µM; in assay [5] it was 64.1 µM; in assay [6] it was over 100 µM. Moreover, the TGI in [7] was 61.1 µM; in assay [8], over 100 µM; in [9], over 100 µM; in assay [10], 92.6 µM; in assay [11], over 100 µM; in [12], over 100 µM. In addition, the TGI is over 100 µM in [13]; over 100 µM in assay [14]; 60.4 µM in assay [15]; over 100 µM in [16]; over 100 µM in [17]; over 100 µM in [18]. For the same molecule, the TGI in assay [19] and in assay [20] was over 100 µM in each case.

For the molecule `COCn1c(=O)n(C)c(=O)c2c1nc1c(c(=O)n(C)c(=O)n1COC)[n+]2[O-]`, the TGI in assay [1] is 44.1 µM; in assay [2], over 100 µM; in assay [3] it was 39.2 µM; in assay [4], 43.9 µM; in assay [5], 77 µM; in [6], 50.1 µM. Moreover, the TGI in assay [7] is 64.5 µM; in [8], 40.8 µM; in assay [9], 43.4 µM; in assay [10], 30.6 µM; in assay [11], 18.1 µM; in assay [12], 31.3 µM. Moreover, the TGI in assay [13] was 14 µM; in assay [14] it was 36.1 µM; in assay [15] it was 42 µM; in assay [16], 44.1 µM; in [17], over 100 µM; in [18], 33.7 µM. Moreover, the TGI in assay [19] and in assay [20] was over 100 µM in each case.

On to `Nc1nc(Cl)cc(NCC2(CO)CC(CCCc3ccccc3)C2)n1` (stereo not given), for which the TGI in [1], in assay [2], in assay [3], in assay [4], in assay [5] and in assay [6] was over 100 µM each time. Also, the TGI in assay [7], in assay [8], in [9], in assay [10], in assay [11] and in assay [12] was over 100 µM each time. The TGI was over 100 µM in assay [13]; over 100 µM in assay [14]; over 95.9 µM in [15]; over 100 µM in assay [16]; over 100 µM in [17]; over 100 µM in assay [18]. The TGI in assay [19] and in assay [20] was over 100 µM in each case.

Turning to `CCCCCCCCCCCCCCCCCCNc1ccn(C2OC(COP(=O)(O)OCC(COP(=O)(O)OCC3OC(n4cc(C)c(=O)[nH]c4=O)CC3N=[N+]=[N-])OCCCCCCCCCCCCCCCCCC)C(O)C2O)c(=O)n1` (stereo not given), the TGI in assay [1] is over 100 µM; in [2], over 100 µM; in assay [3] it was 88.7 µM; in assay [4] it was over 100 µM; in assay [5] it was over 100 µM; in assay [6] it was over 100 µM. The TGI in assay [7], in assay [8], in assay [9], in assay [10], in assay [11] and in assay [12] was over 100 µM each time. Further, the TGI in assay [13], in assay [14], in assay [15], in assay [16], in [17] and in assay [18] was over 100 µM throughout. In addition, the TGI in [19] and in assay [20] was over 100 µM in each case.
